Counter-ions that a name gives are not always drawn. Active and inactive are the calls of the source.
Tests used:
[1] = biological target: Ubiquitin carboxyl-terminal hydrolase BAP1 (Homo sapiens, UniProt Q92560); test: BAP1 deubiquitinase inhibitors, dose response, biochemical (AID 714); format: functional
14-3-3 protein gamma = 14-3-3 protein gamma (Homo sapiens, UniProt P61981); test: modulators of 14-3-3 gamma client binding – dose response (AID 711); format: functional
[2] = biological target: T1, Voltage-gated N-type calcium channel alpha-1B subunit/Amyloid beta A4 precursor protein-binding family A member 1 (Homo sapiens, UniProt Q00975+Q02410); format: protein assay
T1 sequence (Q00975 whole entry): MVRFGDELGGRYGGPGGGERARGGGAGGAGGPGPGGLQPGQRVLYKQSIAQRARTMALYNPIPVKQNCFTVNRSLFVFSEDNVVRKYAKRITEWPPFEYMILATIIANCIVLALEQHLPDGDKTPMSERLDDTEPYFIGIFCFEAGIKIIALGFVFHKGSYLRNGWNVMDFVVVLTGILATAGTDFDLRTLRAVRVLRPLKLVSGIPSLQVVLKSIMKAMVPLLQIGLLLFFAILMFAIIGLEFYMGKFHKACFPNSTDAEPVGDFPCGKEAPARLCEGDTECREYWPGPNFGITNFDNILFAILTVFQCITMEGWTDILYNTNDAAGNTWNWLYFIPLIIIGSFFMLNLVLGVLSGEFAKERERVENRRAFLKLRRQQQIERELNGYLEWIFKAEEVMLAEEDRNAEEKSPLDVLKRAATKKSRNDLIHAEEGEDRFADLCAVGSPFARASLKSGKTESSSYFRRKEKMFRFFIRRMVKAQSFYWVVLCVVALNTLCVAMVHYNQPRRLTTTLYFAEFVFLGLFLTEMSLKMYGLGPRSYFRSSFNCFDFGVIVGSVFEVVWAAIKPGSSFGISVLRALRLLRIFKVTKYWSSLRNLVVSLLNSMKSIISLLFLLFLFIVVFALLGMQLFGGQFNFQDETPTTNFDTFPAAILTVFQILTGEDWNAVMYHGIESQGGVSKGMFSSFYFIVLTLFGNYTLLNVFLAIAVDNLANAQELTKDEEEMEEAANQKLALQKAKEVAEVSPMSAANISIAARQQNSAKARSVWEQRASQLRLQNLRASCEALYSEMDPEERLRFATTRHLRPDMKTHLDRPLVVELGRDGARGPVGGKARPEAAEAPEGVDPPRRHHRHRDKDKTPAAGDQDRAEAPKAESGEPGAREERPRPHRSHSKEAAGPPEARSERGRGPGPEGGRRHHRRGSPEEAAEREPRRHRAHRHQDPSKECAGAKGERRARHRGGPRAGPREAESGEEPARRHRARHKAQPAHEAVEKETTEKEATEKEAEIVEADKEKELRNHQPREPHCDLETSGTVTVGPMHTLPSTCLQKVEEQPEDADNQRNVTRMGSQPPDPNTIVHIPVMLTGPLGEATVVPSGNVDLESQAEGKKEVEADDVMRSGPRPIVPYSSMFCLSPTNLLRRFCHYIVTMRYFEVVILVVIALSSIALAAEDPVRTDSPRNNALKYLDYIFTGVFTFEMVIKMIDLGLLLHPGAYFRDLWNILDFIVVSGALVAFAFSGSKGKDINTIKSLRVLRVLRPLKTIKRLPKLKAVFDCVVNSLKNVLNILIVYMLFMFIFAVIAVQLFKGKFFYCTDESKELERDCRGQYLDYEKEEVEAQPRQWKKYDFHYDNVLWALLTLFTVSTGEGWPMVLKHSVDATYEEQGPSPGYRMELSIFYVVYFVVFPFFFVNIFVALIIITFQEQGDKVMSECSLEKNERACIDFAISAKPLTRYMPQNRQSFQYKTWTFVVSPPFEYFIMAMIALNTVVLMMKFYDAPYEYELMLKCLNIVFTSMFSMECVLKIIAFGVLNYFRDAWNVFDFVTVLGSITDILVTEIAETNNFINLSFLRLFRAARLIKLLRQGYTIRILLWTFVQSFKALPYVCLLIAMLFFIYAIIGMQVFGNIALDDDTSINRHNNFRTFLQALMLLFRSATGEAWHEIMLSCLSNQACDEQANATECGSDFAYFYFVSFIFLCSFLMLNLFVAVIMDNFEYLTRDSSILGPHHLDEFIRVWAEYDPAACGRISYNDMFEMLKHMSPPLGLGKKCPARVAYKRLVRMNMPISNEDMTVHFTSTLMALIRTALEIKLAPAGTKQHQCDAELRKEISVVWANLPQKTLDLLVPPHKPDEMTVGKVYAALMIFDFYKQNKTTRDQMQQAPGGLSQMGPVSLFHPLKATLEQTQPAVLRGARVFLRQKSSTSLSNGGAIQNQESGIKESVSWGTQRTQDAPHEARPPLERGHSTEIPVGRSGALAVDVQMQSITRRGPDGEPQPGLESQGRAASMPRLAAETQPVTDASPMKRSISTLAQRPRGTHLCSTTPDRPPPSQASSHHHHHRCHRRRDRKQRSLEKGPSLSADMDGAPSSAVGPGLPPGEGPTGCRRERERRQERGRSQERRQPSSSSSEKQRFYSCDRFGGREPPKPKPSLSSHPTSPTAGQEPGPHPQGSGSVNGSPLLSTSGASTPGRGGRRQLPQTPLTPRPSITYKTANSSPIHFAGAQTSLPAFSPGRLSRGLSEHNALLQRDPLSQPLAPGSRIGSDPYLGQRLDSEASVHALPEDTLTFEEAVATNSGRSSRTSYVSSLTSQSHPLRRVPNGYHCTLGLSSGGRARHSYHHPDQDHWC
T1 sequence (Q02410 whole entry): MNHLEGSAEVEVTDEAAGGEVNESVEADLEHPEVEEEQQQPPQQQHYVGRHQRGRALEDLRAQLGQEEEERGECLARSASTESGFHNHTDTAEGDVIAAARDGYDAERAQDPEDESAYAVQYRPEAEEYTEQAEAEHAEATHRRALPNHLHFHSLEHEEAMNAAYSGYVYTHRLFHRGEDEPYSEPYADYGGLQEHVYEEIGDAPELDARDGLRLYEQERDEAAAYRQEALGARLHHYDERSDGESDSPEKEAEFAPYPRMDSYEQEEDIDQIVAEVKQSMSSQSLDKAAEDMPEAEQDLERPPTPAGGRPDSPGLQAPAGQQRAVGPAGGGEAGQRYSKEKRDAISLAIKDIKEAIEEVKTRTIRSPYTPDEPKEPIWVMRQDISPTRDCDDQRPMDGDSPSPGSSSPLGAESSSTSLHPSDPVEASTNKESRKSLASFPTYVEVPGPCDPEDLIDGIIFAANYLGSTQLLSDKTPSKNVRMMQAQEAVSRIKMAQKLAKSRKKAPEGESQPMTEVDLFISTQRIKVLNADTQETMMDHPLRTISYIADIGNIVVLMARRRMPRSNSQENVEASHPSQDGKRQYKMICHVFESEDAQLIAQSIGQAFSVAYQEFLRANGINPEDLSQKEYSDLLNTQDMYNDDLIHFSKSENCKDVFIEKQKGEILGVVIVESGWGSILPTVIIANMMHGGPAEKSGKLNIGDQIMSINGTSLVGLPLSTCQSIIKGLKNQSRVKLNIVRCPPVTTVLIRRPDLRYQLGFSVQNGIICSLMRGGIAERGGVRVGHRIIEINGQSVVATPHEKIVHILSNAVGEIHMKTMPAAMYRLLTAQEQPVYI

[3] = biological target: T1, Voltage-gated N-type calcium channel alpha-1B subunit/Amyloid beta A4 precursor protein-binding family A member 1; format: protein assay; remark: listed apart in the source
[4] = biological target: Bifunctional protein GlmU (Mycobacterium tuberculosis, UniProt P9WMN3); test: Inhibitors of Mycobacterial Glucosamine-1-phosphate acetyl transferase (GlmU). Secondary screen.; set-up: species or system Mycobacterium tuberculosis H37Rv
[5] = biological target: Glucose-6-phosphate 1-dehydrogenase (Homo sapiens, UniProt P11413); test: human G6PD enzyme inhibitors, dose response, selectivity assay for P. falciparum G6PD inhibitor project, biochemical, fluorescence (AID 504792); format: functional
[6] = biological target: Eukaryotic translation initiation factor 4E (Mus musculus, UniProt P63073); test: eIF4E–eIF4G protein interaction inhibitors, dose response, biochemical, TR-FRET (AID 855); format: functional;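 further: potency for disrupting eIF4E binding to eIF4GI seen as loss of FRET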
Chain of Eukaryotic translation initiation factor 4E (P63073 whole entry): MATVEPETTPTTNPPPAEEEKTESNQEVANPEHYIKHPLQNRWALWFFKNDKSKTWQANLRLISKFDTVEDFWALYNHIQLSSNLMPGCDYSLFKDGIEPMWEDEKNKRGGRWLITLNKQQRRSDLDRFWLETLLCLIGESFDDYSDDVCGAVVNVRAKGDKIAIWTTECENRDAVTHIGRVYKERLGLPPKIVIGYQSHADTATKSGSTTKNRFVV

H9c2 = test: cells; format: functional, cell-based; conditions: Rattus norvegicus, H9c2, Myocardium;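 further: confirmatory concentration-response retest of ultra-high-throughput screening hits for modulation of myocardial damage; cell death induced by hydrogen peroxide oxidative stress; compound pretreatment for 60 min then peroxide exposure for 2 h; potency is for protecting the cells against peroxide damage rather than for killing them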
Insulin-degrading enzyme = biological target: T2, Insulin-degrading enzyme (Homo sapiens, UniProt P14735); test: Dose Response: Fluorescence polarization-based cell-based high throughput dose response assay for inhibitors of insulin-degrading enzyme (IDE). [Related pubchem assays: 434962 (Primary screen (IDE inhibitors in singlicate)), 449730 (Counterscreen (Cytotoxicity in triplicate)), 435028 (Confirmation (IDE inhibitors in triplicate)), 434984 (Summary …; format: functional
T2 sequence (P14735 whole entry): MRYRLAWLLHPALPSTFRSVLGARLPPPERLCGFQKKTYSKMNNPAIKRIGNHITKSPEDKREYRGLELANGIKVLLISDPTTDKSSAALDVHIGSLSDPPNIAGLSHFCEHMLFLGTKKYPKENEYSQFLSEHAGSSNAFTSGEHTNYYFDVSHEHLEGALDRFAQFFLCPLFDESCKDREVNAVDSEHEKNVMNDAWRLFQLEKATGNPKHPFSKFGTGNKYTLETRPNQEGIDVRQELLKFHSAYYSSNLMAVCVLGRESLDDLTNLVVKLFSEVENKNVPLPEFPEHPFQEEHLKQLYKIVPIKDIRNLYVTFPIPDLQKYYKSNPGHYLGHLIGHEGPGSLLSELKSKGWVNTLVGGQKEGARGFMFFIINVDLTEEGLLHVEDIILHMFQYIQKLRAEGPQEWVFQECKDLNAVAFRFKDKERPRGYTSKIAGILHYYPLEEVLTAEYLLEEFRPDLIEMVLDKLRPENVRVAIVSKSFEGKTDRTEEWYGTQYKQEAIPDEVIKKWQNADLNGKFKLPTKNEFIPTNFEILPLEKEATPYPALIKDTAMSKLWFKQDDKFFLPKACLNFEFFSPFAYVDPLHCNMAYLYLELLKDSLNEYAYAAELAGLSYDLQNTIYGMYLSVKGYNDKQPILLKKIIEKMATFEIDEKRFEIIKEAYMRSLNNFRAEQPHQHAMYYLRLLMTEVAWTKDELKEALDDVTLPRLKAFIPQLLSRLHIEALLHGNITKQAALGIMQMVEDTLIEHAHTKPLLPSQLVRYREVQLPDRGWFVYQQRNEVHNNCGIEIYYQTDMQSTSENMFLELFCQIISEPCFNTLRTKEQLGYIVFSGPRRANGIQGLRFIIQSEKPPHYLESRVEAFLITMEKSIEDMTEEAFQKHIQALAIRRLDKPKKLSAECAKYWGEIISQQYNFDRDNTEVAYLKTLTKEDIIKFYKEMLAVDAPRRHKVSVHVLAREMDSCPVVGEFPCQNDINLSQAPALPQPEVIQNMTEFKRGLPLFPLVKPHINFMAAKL

[7] = biological target: T3, Mannose-6-phosphate isomerase (Homo sapiens, UniProt P34949); test: human PMI inhibitors, high substrate, primary screen, biochemical, fluorescence intensity, high mannose 6-phosphate (AID 1220)
T3 sequence (P34949 whole entry): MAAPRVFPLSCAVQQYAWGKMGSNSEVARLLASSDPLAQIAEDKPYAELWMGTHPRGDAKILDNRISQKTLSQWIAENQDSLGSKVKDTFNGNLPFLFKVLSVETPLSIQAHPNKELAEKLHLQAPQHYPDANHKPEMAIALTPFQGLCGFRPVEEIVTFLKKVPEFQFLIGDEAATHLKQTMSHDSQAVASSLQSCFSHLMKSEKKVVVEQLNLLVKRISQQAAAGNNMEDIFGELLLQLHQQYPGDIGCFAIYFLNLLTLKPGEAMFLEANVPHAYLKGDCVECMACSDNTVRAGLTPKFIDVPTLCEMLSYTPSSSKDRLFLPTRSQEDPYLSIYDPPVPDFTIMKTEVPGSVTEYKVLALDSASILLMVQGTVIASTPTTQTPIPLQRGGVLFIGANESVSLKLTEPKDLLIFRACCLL

[8] = biological target: Ras and Rab interactor 1/Tyrosine-protein kinase ABL1 (Homo sapiens, UniProt P00519+Q13671); format: functional;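 further: biochemical TR-FRET dose-response test measuring inhibition of binding between Rin1 and Abl proteins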
[9] = A549 cell cytotoxicity, dose response, CellTiter-Glo luminescence, dry powder, set 17 (AID 1117284); format: functional, cell-based
[10] = inhibitors of intracellular T. cruzi replication, confirmation, NIH3T3 host cells, beta-gal luminescence (AID 2044); format: functional, cell-based;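 further: intracellular parasites grown in NIH/3T3 mouse fibroblasts as host cells; luminescent beta-galactosidase reporter signal from transgenic T. cruzi replicating inside host cells; inhibitors lower the luminescence signal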
[11] = biological target: Aryl hydrocarbon receptor (Homo sapiens, UniProt P35869); test: Luminescence-based cell-based high throughput dose response assay for activators of the Aryl Hydrocarbon Receptor (AHR). [Related pubchem assays: 2796 (Primary screen (AHR activators in singlicate)), 2845 (Confirmation screen (AHR activators in triplicate)), 434939 (Counterscreen (PXR activators in triplicate)), 2804 (Summary (AHR activators))]; format: ADME
[12] = cytotoxicity toward NIH3T3 fibroblasts, dose response, counter-screen, cell-based, ATP luminescence, mouse fibroblasts (AID 2010); format: functional;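 further: cells exposed to compound for about 90 hours before reading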
INS1 = test: beta cell apoptosis inhibitors, cytokine rescue, dose response, luminescence, retest (AID 449756); format: functional, cell-based; conditions: Rattus norvegicus;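 further: cell death triggered by IL-1 beta plus TNF-alpha plus IFN-gamma mixture; protective hits raise ATP signal compared with cytokine alone wells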
Paired box protein Pax-8 = Paired box protein Pax-8 (Homo sapiens, UniProt Q06710); test: inhibitors of PAX8-driven TPO luciferase reporter, dose response, RMG-I cells, cherry-pick (AID 687027); format: functional, cell-based;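 further: luciferase reporter driven by Pax8 target thyroperoxidase promoter measured by SteadyGlo luminescence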
Chain of Paired box protein Pax-8 (Q06710 whole entry): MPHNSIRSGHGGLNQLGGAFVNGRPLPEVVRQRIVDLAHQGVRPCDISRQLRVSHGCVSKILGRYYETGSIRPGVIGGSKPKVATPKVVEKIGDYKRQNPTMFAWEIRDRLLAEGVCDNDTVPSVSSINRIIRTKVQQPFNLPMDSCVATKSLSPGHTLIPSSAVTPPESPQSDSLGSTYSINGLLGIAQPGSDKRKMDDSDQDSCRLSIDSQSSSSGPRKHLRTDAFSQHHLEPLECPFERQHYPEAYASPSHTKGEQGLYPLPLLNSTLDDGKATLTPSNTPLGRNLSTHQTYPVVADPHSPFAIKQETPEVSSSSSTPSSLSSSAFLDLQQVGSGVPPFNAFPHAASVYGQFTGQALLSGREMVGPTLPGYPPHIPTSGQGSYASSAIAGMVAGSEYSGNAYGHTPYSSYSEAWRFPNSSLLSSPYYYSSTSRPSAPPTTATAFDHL

[13] = Dose-response inhibition of insulin secretion in a rat insulinoma line at 5 mM glucose (AID 1117331); format: functional, cell-based; conditions: INS-1E
cells = format: functional, cell-based; conditions: INS-1E

Chain of Ubiquitin carboxyl-terminal hydrolase BAP1 (Q92560 whole entry): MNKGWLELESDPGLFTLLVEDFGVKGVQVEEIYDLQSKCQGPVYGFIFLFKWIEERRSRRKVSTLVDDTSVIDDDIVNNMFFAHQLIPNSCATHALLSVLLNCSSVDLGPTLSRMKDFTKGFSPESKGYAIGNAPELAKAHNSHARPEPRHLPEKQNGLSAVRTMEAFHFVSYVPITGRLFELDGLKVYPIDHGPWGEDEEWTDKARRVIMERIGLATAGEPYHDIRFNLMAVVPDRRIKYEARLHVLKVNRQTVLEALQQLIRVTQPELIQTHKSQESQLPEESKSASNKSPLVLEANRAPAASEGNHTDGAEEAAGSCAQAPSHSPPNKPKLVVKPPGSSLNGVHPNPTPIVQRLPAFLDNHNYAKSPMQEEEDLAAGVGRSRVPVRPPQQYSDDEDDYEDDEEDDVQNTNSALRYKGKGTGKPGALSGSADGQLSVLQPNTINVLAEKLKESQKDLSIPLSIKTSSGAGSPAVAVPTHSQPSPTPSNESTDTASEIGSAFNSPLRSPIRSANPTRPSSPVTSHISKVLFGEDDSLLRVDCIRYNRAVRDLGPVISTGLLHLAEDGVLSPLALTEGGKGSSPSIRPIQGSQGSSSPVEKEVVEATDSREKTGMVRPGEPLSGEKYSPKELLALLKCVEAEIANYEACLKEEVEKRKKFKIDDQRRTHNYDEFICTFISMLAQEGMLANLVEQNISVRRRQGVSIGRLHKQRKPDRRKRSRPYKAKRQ
Chain of 14-3-3 protein gamma (P61981 whole entry): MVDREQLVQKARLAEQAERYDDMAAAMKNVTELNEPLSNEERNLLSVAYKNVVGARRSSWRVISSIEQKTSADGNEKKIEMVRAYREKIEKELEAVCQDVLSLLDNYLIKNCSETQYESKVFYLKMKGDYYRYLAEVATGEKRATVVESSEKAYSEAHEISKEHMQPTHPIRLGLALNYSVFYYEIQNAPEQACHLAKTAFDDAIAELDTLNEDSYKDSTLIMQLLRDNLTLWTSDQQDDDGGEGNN

N#Cc1c(NC(=O)CSc2ncnc3c2cnn3-c2ccccc2Cl)sc2c1CCCC2
IC50 [1]: > 50 µM (not active)

OC(CN1CCOCC1)CN(c1ccccc1)c1ccccc1 (stereo unspecified)
IC50 (14-3-3 protein gamma): > 50 µM (not active)

O=C1Nc2ccccc2C(=O)C1(Cl)Cc1ccccc1 (stereo unspecified)
IC50 [2]: 23.3 µM (active)
IC50 [3]: > 50 µM (inactive)
IC50 [4]: 62.9 µM (active)
IC50 [5]: > 80 µM (inactive)
IC50 [6]: > 64 µM (inactive)
IC50 (H9c2): 17.2 µM (active)

O=c1[nH]c2ccccc2c(O)c1O
IC50 [2]: 28.5 µM (active)
IC50 [3]: 2.71 µM (active)
IC50 (Insulin-degrading enzyme): 3.28 µM (active)
IC50 [7]: 9.69 µM (active)

C[C@@H]1CN([C@H](C)CO)S(=O)(=O)c2ccc(C#C[C@@H](C)O)cc2O[C@@H]1CN(C)Cc1ccc(-c2ccccc2)cc1
IC50 [8]: 9.68 µM (active)
AC50 [9]: 36.1 µM (active)

CCc1ccc2[nH]c3nc(N/N=C/c4ccc(O)cc4O)nnc3c2c1
EC50 [10]: 2.44 µM (active)
EC50 [11]: > 91.7 µM (not active)
EC50 [12]: 17.7 µM (active)
AC50 (INS1): 1.58 µM (active)
AC50 (Paired box protein Pax-8): 2.7 µM (active)

NCc1ccc(S(N)(=O)=O)cc1 [MAFENIDE HYDROCHLORIDE]
IC50 [13]: > 33.3 µM (inactive)
IC50 (cells): > 33.3 µM (inactive)

Source: ChEMBL document CHEMBL1201862, “PubChem BioAssay data set” (2004)
